Source: patent US20250002475A1 (EPICS THERAPEUTICS, priority 2023, published 2025)

Columns and labels:
Caov-3 cells = test: Caov-3 cellular viability assay (ATP-Lite, 72 h); assay type: cell-based; settings: Homo sapiens, ATP-Lite luminescence, % viability relative to DMSO
Outline: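 10000 cells/well treated 72 h at 37 °C, 5% CO2, in RPMI-1640 with 10% FBS and 0.1% DMSO final. Viability by ATP-Lite One Step luminescence. Expressed as % of DMSO control, with IC50 from each compound's concentration-response curve.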

Kasumi-1 cells = test: Kasumi-1 cellular viability assay (ATP-Lite, 72 h); assay type: cell-based; settings: Homo sapiens, ATP-Lite luminescence, % viability relative to DMSO
Outline: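 Kasumi-1 AML cells, 15000/well in RPMI-1640 with 10% FBS, were exposed to compound titrations (0.1% final DMSO) for 72 h at 37 °C, 5% CO2. ATP-Lite One Step luminescence gave % viability versus DMSO control, and IC50 came from the concentration-response.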

[1] = molecular target: T1, recombinant METTL3/METTL14 complex (Homo sapiens, UniProt Q86U44); test: METTL3/14 Scintillation Proximity Assay (SPA), RNA methyltransferase activity; assay type: biochemical; settings: 5.31 nM METTL3/14 complex, 250 nM RNA substrate, 1 μM 3H-SAM, 90 min; for compounds marked * best of the two separated forms
T1 construct: purchased Active Motif 311970; host or cells: Sf9 cells
T1 sequence (Q86U44 whole entry): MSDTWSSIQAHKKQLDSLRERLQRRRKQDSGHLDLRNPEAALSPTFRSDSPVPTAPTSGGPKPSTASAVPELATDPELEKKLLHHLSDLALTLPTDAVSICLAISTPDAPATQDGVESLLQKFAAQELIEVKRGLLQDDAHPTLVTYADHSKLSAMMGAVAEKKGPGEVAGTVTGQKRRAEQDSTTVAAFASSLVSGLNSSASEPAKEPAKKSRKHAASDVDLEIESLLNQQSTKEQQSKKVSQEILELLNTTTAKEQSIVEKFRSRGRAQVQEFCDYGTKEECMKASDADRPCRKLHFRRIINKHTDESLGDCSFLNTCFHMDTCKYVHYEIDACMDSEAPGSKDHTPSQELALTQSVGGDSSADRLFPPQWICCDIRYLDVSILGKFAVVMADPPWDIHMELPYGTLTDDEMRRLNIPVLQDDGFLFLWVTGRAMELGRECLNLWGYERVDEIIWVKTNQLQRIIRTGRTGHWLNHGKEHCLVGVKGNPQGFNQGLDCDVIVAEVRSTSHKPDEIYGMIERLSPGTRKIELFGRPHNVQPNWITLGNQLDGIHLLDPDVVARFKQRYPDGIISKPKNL
T1 sequence (Q9HCE5 whole entry partner): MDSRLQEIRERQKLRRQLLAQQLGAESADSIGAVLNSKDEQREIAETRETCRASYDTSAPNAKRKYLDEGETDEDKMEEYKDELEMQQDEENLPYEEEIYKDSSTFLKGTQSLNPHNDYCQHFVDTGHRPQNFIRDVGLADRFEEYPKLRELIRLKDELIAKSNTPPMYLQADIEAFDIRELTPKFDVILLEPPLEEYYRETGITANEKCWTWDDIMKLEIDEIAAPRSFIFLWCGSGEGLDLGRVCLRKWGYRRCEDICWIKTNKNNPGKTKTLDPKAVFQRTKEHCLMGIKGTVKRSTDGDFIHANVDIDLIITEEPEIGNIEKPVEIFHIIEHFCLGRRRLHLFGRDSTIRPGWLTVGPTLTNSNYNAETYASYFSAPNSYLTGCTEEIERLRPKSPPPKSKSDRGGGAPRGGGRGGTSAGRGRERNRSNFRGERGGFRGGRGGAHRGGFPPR

c1ncc(C2CC2)cc1-c1cn(C2(c3ccc(N4CCC[C@@H](NCC5CCC5)C4)cn3)COC2)nn1 [Compound 306, (R)-N-(cyclobutylmethyl)-1-(6-(3-(4-(5-cyclopropylpyridin-3-yl)-1H-1,2,3-triazol-1-yl)oxetan-3-yl)pyridin-3-yl)piperidin-3-amine] gave an IC50 (Caov-3 cells) of at most 500 nM, an IC50 (Kasumi-1 cells) of at most 500 nM and an IC50 [1] of at most 50 nM.

For c1ncc(-c2cn(C3(c4ccc(N5CCC[C@@H](NCC6CCC6)C5)cn4)COC3)nn2)cc1OC1CCC1 [Compound 307, (R)-1-(6-(3-(4-(5-cyclobutoxypyridin-3-yl)-1H-1,2,3-triazol-1-yl)oxetan-3-yl)pyridin-3-yl)-N-(cyclobutylmethyl)piperidin-3-amine], the IC50 (Caov-3 cells) was at most 500 nM, the IC50 (Kasumi-1 cells) was at most 500 nM and the IC50 [1] was at most 50 nM.

Work on FC12CC(CN[C@@H]3CCCN(c4ccc(C5(n6cc(-c7cncc(N8CCCC8)n7)nn6)COC5)nc4)C3)(C1)C2 [Compound 308, (R)-N-((3-fluorobicyclo[1.1.1]pentan-1-yl)methyl)-1-(6-(3-(4-(6-(pyrrolidin-1-yl)pyrazin-2-yl)-1H-1,2,3-triazol-1-yl)oxetan-3-yl)pyridin-3-yl)piperdin-3-amine] yielded an IC50 (Caov-3 cells) of at most 500 nM, an IC50 (Kasumi-1 cells) of at most 500 nM and an IC50 [1] of at most 50 nM.

Cn1c(N2CCCC2)cc(NC(=O)C2(c3ccc(N4CCC[C@@H](NCC5CCC5)C4)cn3)COC2)cc1=O [Compound 310, (R)-3-(5-(3-((cyclobutylmethyl)amino)piperidin-1-yl)pyridin-2-yl)-N-(1-methyl-2-oxo-6-(pyrrolidin-1-yl)-1,2-dihydropyridin-4-yl)oxetane-3-carboxamide] showed an IC50 (Caov-3 cells) of at most 500 nM, an IC50 (Kasumi-1 cells) of 500 to 5000 nM and an IC50 [1] of at most 50 nM.

O=C(Nc1cc(=O)n2ccsc2n1)C1(c2ccc(N3CCC[C@@H](NCC4CCC4)C3)cn2)COC1 [Compound 311, (R)-3-(5-(3-((cyclobutylmethyl)amino)piperidin-1-yl)pyridin-2-yl)-N-(5-oxo-5H-thiazolo[3,2-a]pyrimidin-7-yl)oxetane-3-carboxamide] was tested, and the IC50 (Caov-3 cells) was at most 500 nM, the IC50 (Kasumi-1 cells) was at most 500 nM and the IC50 [1] was at most 50 nM.

c1ncc(C2CCC2)cc1-c1cn(C2(c3ccc(N4CCC[C@@H](NCC5CC5)C4)cn3)COC2)nn1 [Compound 312, (R)-1-(6-(3-(4-(5-cyclobutylpyridin-3-yl)-1H-1,2,3-triazol-1-yl)oxetan-3-yl)pyridin-3-yl)-N-(cyclopropylmethyl)piperidin-3-amine] was tested, and the IC50 (Caov-3 cells) was at most 500 nM, the IC50 (Kasumi-1 cells) was at most 500 nM and the IC50 [1] was at most 50 nM.

Molecule c1ncc(C2CCCC2)cc1-c1cn(C2(c3ccc(N4CCC[C@@H](NCC5CC5)C4)cn3)COC2)nn1 [Compound 313, (R)-1-(6-(3-(4-(5-cyclopentylpyridin-3-yl)-1H-1,2,3-triazol-1-yl)oxetan-3-yl)pyridin-3-yl)-N-(cyclopropylmethyl)piperidin-3-amine] has an IC50 (Caov-3 cells) of at most 500 nM, an IC50 (Kasumi-1 cells) of at most 500 nM and an IC50 [1] of at most 50 nM.

In the case of FC1(F)CC(c2ccc(N3CCC[C@@H](NCC4CC4)C3)cn2)(n2cc(-c3cncc(C4CC4)c3)nn2)C1 [Compound 315, (R)-N-(cyclopropylmethyl)-1-(6-(1-(4-(5-cyclopropylpyridin-3-yl)-1H-1,2,3-triazol-1-yl)-3,3-difluorocyclobutyl)pyridin-3-yl)piperidin-3-amine], the IC50 (Caov-3 cells) is reported as 500 to 5000 nM, the IC50 (Kasumi-1 cells) is reported as 500 to 5000 nM and the IC50 [1] is reported as at most 50 nM.

O=c1cc(-c2cn(C3(c4ccc(N5CCC[C@@H](NCC6CC6)C5)cn4)COC3)nn2)nc2ccccn12 [Compound 316, (R)-2-(1-(3-(5-(3-((cyclopropylmethyl)amino)piperidin-1-yl)pyridin-2-yl)oxetan-3-yl)-1H-1,2,3-triazol-4-yl)-4H-pyrido[1,2-a]pyrimidin-4-one] showed an IC50 (Caov-3 cells) of 500 to 5000 nM, an IC50 (Kasumi-1 cells) of 500 to 5000 nM and an IC50 [1] of at most 50 nM.

With O=C(Nc1cncc(N2CCCC2)n1)C1(c2ccc(N3CCC[C@@H](NCC4CCC4)C3)nc2)COC1 [Compound 319, (R)-3-(6-(3-((cyclobutylmethyl)amino)piperidin-1-yl)pyridin-3-yl)-N-(6-(pyrrolidin-1-yl)pyrazin-2-yl)oxetane-3-carboxamide] the IC50 (Caov-3 cells) was at most 500 nM, the IC50 (Kasumi-1 cells) was at most 500 nM and the IC50 [1] was at most 50 nM.

For CC(n1cc(-c2cncc(C3CC3)c2)nn1)n1ccc(N2CCC[C@@H](NCC3CC3)C2)cc1=O (stereo partly drawn) [Compound 320, 4-((R)-3-((cyclopropylmethyl)amino)piperidin-1-yl)-1-(1-(4-(5-cyclopropylpyridin-3-yl)-1H-1,2,3-triazol-1-yl)ethyl)pyridin-2(1H)-one], the IC50 (Caov-3 cells) was at most 500 nM, the IC50 (Kasumi-1 cells) was at most 500 nM and the IC50 [1] was at most 50 nM.

O=C(Nc1cc(=O)n2ccccc2n1)C1(c2ccc(N3CCC[C@@H](NCC4CC4)C3)nc2)COC1 [Compound 321, (R)-3-(6-(3-((cyclopropylmethyl)amino)piperidin-1-yl)pyridin-3-yl)-N-(4-oxo-4H-pyrido[1,2-a]pyrimidin-2-yl)oxetane-3-carboxamide] showed an IC50 (Caov-3 cells) of 500 to 5000 nM, an IC50 (Kasumi-1 cells) of 500 to 5000 nM and an IC50 [1] of at most 50 nM.

With O=C(Nc1cc(=O)n2ccccc2n1)C1(c2ccc(N3CCC[C@@H](NCC4CCC4)C3)nc2)COC1 [Compound 322, (R)-3-(6-(3-((cyclobutylmethyl)amino)piperidin-1-yl)pyridin-3-yl)-N-(4-oxo-4H-pyrido[1,2-a]pyrimidin-2-yl)oxetane-3-carboxamide] the IC50 (Caov-3 cells) was 500 to 5000 nM, the IC50 (Kasumi-1 cells) was 500 to 5000 nM and the IC50 [1] was at most 50 nM.

For c1cc(C2(n3cc(-c4cncc(C5CC5)n4)nn3)COC2)ncc1N1CCC[C@@H](NCC2CC2)C1 [Compound 323, (R)-N-(cyclopropylmethyl)-1-(6-(3-(4-(6-cyclopropylpyrazin-2-yl)-1H-1,2,3-triazol-1-yl)oxetan-3-yl)pyridin-3-yl)piperidin-3-amine], the IC50 (Caov-3 cells) was at most 500 nM, the IC50 (Kasumi-1 cells) was at most 500 nM and the IC50 [1] was at most 50 nM.

O=C(Nc1cncc(N2CCCC2)n1)C1(c2ccc(N3CCC[C@@H](NCC4CC4)C3)nc2)COC1 [Compound 324, (R)-3-(6-(3-((cyclopropylmethyl)amino)piperidin-1-yl)pyridin-3-yl)-N-(6-(pyrrolidin-1-yl)pyrazin-2-yl)oxetane-3-carboxamide] gave an IC50 (Caov-3 cells) of at most 500 nM, an IC50 (Kasumi-1 cells) of at most 500 nM and an IC50 [1] of at most 50 nM.

Work on O=C(Nc1cc(=O)n2ccccc2n1)C1(c2ccc(N3CCC[C@@H](NCC4CCCC4)C3)cn2)COC1 [Compound 325, (R)-3-(5-(3-((cyclopentylmethyl)amino)piperidin-1-yl)pyridin-2-yl)-N-(4-oxo-4H-pyrido[1,2-a]pyrimidin-2-yl)oxetane-3-carboxamide] yielded an IC50 (Caov-3 cells) of at most 500 nM, an IC50 (Kasumi-1 cells) of 500 to 5000 nM and an IC50 [1] of at most 50 nM.

O=C(Nc1cc(=O)n2ccccc2n1)C1(c2ccc(N3CCC[C@@H](NC4CCCC4)C3)cn2)COC1 [Compound 326, (R)-3-(5-(3-(cyclopentylamino)piperidin-1-yl)pyridin-2-yl)-N-(4-oxo-4H-pyrido[1,2-a]pyrimidin-2-yl)oxetane-3-carboxamide] gave an IC50 (Caov-3 cells) of at most 500 nM, an IC50 (Kasumi-1 cells) of 500 to 5000 nM and an IC50 [1] of at most 50 nM.

O=C(Nc1cc(=O)n2ccccc2n1)C1(c2ccc(N3CCC[C@@H](NC4CCC4)C3)cn2)COC1 [Compound 327, (R)-3-(5-(3-(cyclobutylamino)piperidin-1-yl)pyridin-2-yl)-N-(4-oxo-4H-pyrido[1,2-a]pyrimidin-2-yl)oxetane-3-carboxamide] gave an IC50 (Caov-3 cells) of 500 to 5000 nM, an IC50 (Kasumi-1 cells) of 500 to 5000 nM and an IC50 [1] of at most 50 nM.

Work on O=C(Nc1cc(=O)n2ccccc2n1)C1(c2ccc(N3CCC[C@@H](NCC4(C(F)(F)F)CC4)C3)cn2)COC1 [Compound 328, (R)-N-(4-oxo-4H-pyrido[1,2-a]pyrimidin-2-yl)-3-(5-(3-(((1-(trifluoromethyl)cyclopropyl)methyl)amino)piperidin-1-yl)pyridin-2-yl)oxetane-3-carboxamide] yielded an IC50 (Caov-3 cells) of at most 500 nM, an IC50 (Kasumi-1 cells) of 500 to 5000 nM and an IC50 [1] of at most 50 nM.

Work on CC(C)CN[C@@H]1CCCN(c2ccc(C3(n4cc(-c5cncc(C6CC6)c5)nn4)COC3)nc2)C1 [Compound 329, (R)-1-(6-(3-(4-(5-cyclopropylpyridin-3-yl)-1H-1,2,3-triazol-1-yl)oxetan-3-yl)pyridin-3-yl)-N-isobutylpiperidin-3-amine] yielded an IC50 (Caov-3 cells) of at most 500 nM, an IC50 (Kasumi-1 cells) of at most 500 nM and an IC50 [1] of at most 50 nM.

O=C(Nc1cc(=O)n2ccccc2n1)C1(c2ccc(N3CCC[C@@H](NCC4(F)CC4)C3)cn2)COC1 [Compound 330, (R)-3-(5-(3-(((1-fluorocyclopropyl)methyl)amino)piperidin-1-yl)pyridin-2-yl)-N-(4-oxo-4H-pyrido[1,2-a]pyrimidin-2-yl)oxetane-3-carboxamide] gave an IC50 (Caov-3 cells) of 500 to 5000 nM, an IC50 (Kasumi-1 cells) of 500 to 5000 nM and an IC50 [1] of at most 50 nM.

In the case of CC1(CN[C@@H]2CCCN(c3ccc(C4(C(=O)Nc5cc(=O)n6ccccc6n5)COC4)nc3)C2)CC1 [Compound 331, (R)-3-(5-(3-(((1-methylcyclopropyl)methyl)amino)piperidin-1-yl)pyridin-2-yl)-N-(4-oxo-4H-pyrido[1,2-a]pyrimidin-2-yl)oxetane-3-carboxamide], the IC50 (Caov-3 cells) is reported as at most 500 nM, the IC50 (Kasumi-1 cells) is reported as at most 500 nM and the IC50 [1] is reported as at most 50 nM.

Work on FC1(CN[C@@H]2CCCN(c3ccc(C4(n5cc(-c6cncc(C7CC7)c6)nn5)COC4)nc3)C2)CC1 [Compound 332, (R)-1-(6-(3-(4-(5-cyclopropylpyridin-3-yl)-1H-1,2,3-triazol-1-yl)oxetan-3-yl)pyridin-3-yl)-N-((1-fluorocyclopropyl)methyl)piperidin-3-amine] yielded an IC50 (Caov-3 cells) of at most 500 nM, an IC50 (Kasumi-1 cells) of at most 500 nM and an IC50 [1] of at most 50 nM.
